Experimental data reported in patent publication US7491819B1 (priority 2004, dated 2009).

What follows are compounds tested against T1, HIV-integrase (Human immunodeficiency virus type 1 group M subtype B, UniProt P12497) (assay: HIV-Integrase Inhibition Activity (SPA bead strand-transfer assay)). Details: Table 1; read-out: Activity (HIV-integrase inhibition, IC50 class).
T1 construct: Recombinant integrase (0.26 ng) was incubated with the beads
Type: biochemical
Method: HIV-Integrase Inhibition Activity. To evaluate in-vitro activity against HIV-integrase, 5 pmole of biotin labeled substrate DNA was bound to 100 μg of Streptavidin coated PVT SPA beads (Amersham Pharmacia Biotech). Recombinant integrase (0.26 ng) was incubated with the beads for 90 min at 37° C. Unbound enzyme was removed by washing the complex followed by addition of inhibitors and 0.1 fmol of P33 labeled target DNA. The reaction was stopped by adding EDTA to a final concentration of 10 mM. Samples were counted in TopCountNXT (Packard) and the CPM was used as a measure of integration. The reaction condition was as described in A. Engelman and R. Craigie, J. Virol 69, 5908-5911 (1995). The sequences of substrate and target DNA were described in Nucleic Acid Research 22, 1121-1122 (1994).
For `CNC(=O)c1cc(F)ccc1CNC(=O)c1nc2n(c(=O)c1O)CCOC2` [Example 3, Pyrimido[2,1-c][1,4]oxazine-2-carboxamide, N-[[4-fluoro-2-[(methylamino)carbonyl]phenyl]methyl]-4,6,7,9-tetrahydro-3-hydroxy-4-oxo-], the IC50 was 2 to 100 nM. Work on `Cc1ccc(CNC(=O)c2nc3n(c(=O)c2O)CCOC3C)cc1C` (stereo not shown) [Example 8, Pyrimido[2,1-c][1,4]oxazine-2-carboxamide, N-[(3,4-dimethylphenyl)methyl]-4,6,7,9-tetrahydro-3-hydroxy-9-methyl-4-oxo-] yielded an IC50 of 2 to 100 nM. Compound `CNC(=O)c1cc(F)ccc1CNC(=O)c1nc2n(c(=O)c1O)CCOC2C` (stereo not shown) [Example 9, Pyrimido[2,1-c][1,4]oxazine-2-carboxamide, N-[[4-fluoro-2-[(methylamino)carbonyl]phenyl]methyl]-4,6,7,9-tetrahydro-3-hydroxy-9-methyl-4-oxo-] has an IC50 of 2 to 100 nM. `CCC1OCCn2c1nc(C(=O)NCc1ccc(F)cc1)c(O)c2=O` (stereo not shown) [Example 10, Pyrimido[2,1-c][1,4]oxazine-2-carboxamide, 9-ethyl-N-[(4-fluorophenyl)methyl]-4,6,7,9-tetrahydro-3-hydroxy-4-oxo-] was tested, and the IC50 was 2 to 100 nM. `CCC1OCCn2c1nc(C(=O)NCc1ccc(F)c(C)c1)c(O)c2=O` (stereo not shown) [Example 11, Pyrimido[2,1-c][1,4]oxazine-2-carboxamide, 9-ethyl-N-[(4-fluoro-3-methylphenyl)methyl]-4,6,7,9-tetrahydro-3-hydroxy-4-oxo-] was tested, and the IC50 was 2 to 100 nM. `CCC1OCCn2c1nc(C(=O)NCc1ccc(Cl)c(Cl)c1)c(O)c2=O` (stereo not shown) [Example 12, Pyrimido[2,1-c][1,4]oxazine-2-carboxamide, N-[(3,4-dichlorophenyl)methyl]-9-ethyl-4,6,7,9-tetrahydro-3-hydroxy-4-oxo-] was tested, and the IC50 was 2 to 100 nM. Compound `CCC1OCCn2c1nc(C(=O)NCc1ccc(C)c(C)c1)c(O)c2=O` (stereo not shown) [Example 13, Pyrimido[2,1-c][1,4]oxazine-2-carboxamide, N-[(3,4-dimethylphenyl)methyl]-9-ethyl-4,6,7,9-tetrahydro-3-hydroxy-4-oxo-] has an IC50 of 2 to 100 nM. `CCC1OCCn2c1nc(C(=O)NCc1ccc(F)c(Cl)c1)c(O)c2=O` (stereo not shown) [Example 14, Pyrimido[2,1-c][1,4]oxazine-2-carboxamide, N-[(3-chloro-4-fluorophenyl)methyl]-9-ethyl-4,6,7,9-tetrahydro-3-hydroxy-4-oxo-] gave an IC50 of 2 to 100 nM. Compound `CCC1OCCn2c1nc(C(=O)NCc1ccc(F)cc1C(=O)NC)c(O)c2=O` (stereo not shown) [Example 15, Pyrimido[2,1-c][1,4]oxazine-2-carboxamide, 9-ethyl-N-[[4-fluoro-2-[(methylamino)carbonyl]phenyl]methyl]-4,6,7,9-tetrahydro-3-hydroxy-4-oxo-] has an IC50 of 2 to 100 nM. `CCC1OCCn2c1nc(C(=O)NCc1ccc(F)cc1-n1cncn1)c(O)c2=O` (stereo not shown) [Example 16, Pyrimido[2,1-c][1,4]oxazine-2-carboxamide, 9-ethyl-N-[[4-fluoro-2-(1H-1,2,4-triazol-1-yl)phenyl]methyl]-4,6,7,9-tetrahydro-3-hydroxy-4-oxo-] was tested, and the IC50 was 2 to 100 nM. Work on `CC(C)C1OCCn2c1nc(C(=O)NCc1ccc(F)cc1)c(O)c2=O` (stereo not shown) [Example 17, Pyrimido[2,1-c][1,4]oxazine-2-carboxamide, N-[(4-fluorophenyl)methyl]-4,6,7,9-tetrahydro-3-hydroxy-9-(1-methylethyl)-4-oxo-] yielded an IC50 of 2 to 100 nM. For `Cc1cc(CNC(=O)c2nc3n(c(=O)c2O)CCOC3C(C)C)ccc1F` (stereo not shown) [Example 18, Pyrimido[2,1-c][1,4]oxazine-2-carboxamide, N-[(4-fluoro-3-methylphenyl)methyl]-4,6,7,9-tetrahydro-3-hydroxy-9-(1-methylethyl)-4-oxo-], the IC50 was 2 to 100 nM. For `Cc1cc(CNC(=O)c2nc3n(c(=O)c2O)CCOC3(C)C)ccc1F` [Example 20, Pyrimido[2,1-c][1,4]oxazine-2-carboxamide, N-[(4-fluoro-3-methylphenyl)methyl]-4,6,7,9-tetrahydro-3-hydroxy-9,9-dimethyl-4-oxo-], the IC50 was 2 to 100 nM. `CC1(C)OCCn2c1nc(C(=O)NCc1ccc(F)cc1-n1cncn1)c(O)c2=O` [Example 21, Pyrimido[2,1-c][1,4]oxazine-2-carboxamide, N-[[4-fluoro-2-(1H-1,2,4-triazol-1-yl)phenyl]methyl]-4,6,7,9-tetrahydro-3-hydroxy-9,9-dimethyl-4-oxo-] gave an IC50 of 2 to 100 nM. `CC1(C)OCCn2c1nc(C(=O)NCc1ccc(-n3cncn3)cc1F)c(O)c2=O` [Example 22, Pyrimido[2,1-c][1,4]oxazine-2-carboxamide, N-[[2-fluoro-4-(1H-1,2,4-triazol-1-yl)phenyl]methyl]-4,6,7,9-tetrahydro-3-hydroxy-9,9-dimethyl-4-oxo-] was tested, and the IC50 was 100 to 1000 nM. Work on `CC1(C)OCCn2c1nc(C(=O)NCc1ccc(F)cc1N1CCOCC1)c(O)c2=O` [Example 23, Pyrimido[2,1-c][1,4]oxazine-2-carboxamide, N-[[4-fluoro-2-(4-morpholinyl)phenyl]methyl]-4,6,7,9-tetrahydro-3-hydroxy-9,9-dimethyl-4-oxo-] yielded an IC50 of 2 to 100 nM. `CC1(C)OCCn2c1nc(C(=O)NCc1ccc(N3CCOCC3)cc1F)c(O)c2=O` [Example 24, Pyrimido[2,1-c][1,4]oxazine-2-carboxamide, N-[[2-fluoro-4-(4-morpholinyl)phenyl]methyl]-4,6,7,9-tetrahydro-3-hydroxy-9,9-dimethyl-4-oxo-] gave an IC50 of 100 to 1000 nM. `CC1(C)OCCn2c1nc(C(=O)NCCCc1ccc(Cl)c(Cl)c1)c(O)c2=O` [Example 25, Pyrimido[2,1-c][1,4]oxazine-2-carboxamide, N-[3-(3,4-dichlorophenyl)propyl]-4,6,7,9-tetrahydro-3-hydroxy-9,9-dimethyl-4-oxo-] gave an IC50 of 100 to 1000 nM. In the case of `CC1(C)OCCn2c1nc(C(=O)NCCCc1ccc(F)cc1)c(O)c2=O` [Example 26, Pyrimido[2,1-c][1,4]oxazine-2-carboxamide, N-[3-(4-fluorophenyl)propyl]-4,6,7,9-tetrahydro-3-hydroxy-9,9-dimethyl-4-oxo-], the IC50 is reported as 2 to 100 nM. `CC1(C)OCCn2c1nc(C(=O)NCc1ccc(F)cc1N1CCCCS1(=O)=O)c(O)c2=O` [Example 27, Pyrimido[2,1-c][1,4]oxazine-2-carboxamide, N-[[4-fluoro-2-(tetrahydro-1,1-dioxido-2H-1,2-thiazin-2-yl)phenyl]methyl]-4,6,7,9-tetrahydro-3-hydroxy-9,9-dimethyl-4-oxo-] showed an IC50 of 2 to 100 nM. With `CC1(C)OCCn2c1nc(C(=O)NCc1ncc(F)cc1F)c(O)c2=O` [Example 28, Pyrimido[2,1-c][1,4]oxazine-2-carboxamide, N-[(3,5-difluoro-2-pyridinyl)methyl]-4,6,7,9-tetrahydro-3-hydroxy-9,9-dimethyl-4-oxo-] the IC50 was 2 to 100 nM. For `CC1(C)OCCn2c1nc(C(=O)NCc1ccc(Cl)cn1)c(O)c2=O` [Example 29, N-((5-Chloropyridin-2-yl)methyl)-3-hydroxy-9,9-dimethyl-4-oxo-4,6,7,9-tetrahydropyrimido[2,1-c][1,4]oxazine-2-carboxamide], the IC50 was 2 to 100 nM. In the case of `CC1(C)OCCn2c1nc(C(=O)NCc1ccc(F)c(Br)c1)c(O)c2=O` [Example 30, Pyrimido[2,1-c][1,4]oxazine-2-carboxamide, N-[(3-bromo-4-fluorophenyl)methyl]-4,6,7,9-tetrahydro-3-hydroxy-9,9-dimethyl-4-oxo-], the IC50 is reported as 2 to 100 nM. With `Cc1ccc(CNC(=O)c2nc3n(c(=O)c2O)CCOC3(C)C)cc1C` [Example 31, Pyrimido[2,1-c][1,4]oxazine-2-carboxamide, N-[(3,4-dimethylphenyl)methyl]-4,6,7,9-tetrahydro-3-hydroxy-9,9-dimethyl-4-oxo-] the IC50 was 2 to 100 nM. For `CC1(C)OCCn2c1nc(C(=O)NCc1ccc(F)c(Cl)c1)c(O)c2=O` [Example 32, Pyrimido[2,1-c][1,4]oxazine-2-carboxamide, N-[(3-chloro-4-fluorophenyl)methyl]-4,6,7,9-tetrahydro-3-hydroxy-9,9-dimethyl-4-oxo-], the IC50 was 2 to 100 nM. `CC1(C)OCCn2c1nc(C(=O)NCc1ccc(F)c(F)c1)c(O)c2=O` [Example 33, Pyrimido[2,1-c][1,4]oxazine-2-carboxamide, N-[(3,4-difluorophenyl)methyl]-4,6,7,9-tetrahydro-3-hydroxy-9,9-dimethyl-4-oxo-] gave an IC50 of 2 to 100 nM. With `CC1(C)OCCn2c1nc(C(=O)NCc1ccc(Cl)cc1)c(O)c2=O` [Example 34, Pyrimido[2,1-c][1,4]oxazine-2-carboxamide, N-[(4-chlorophenyl)methyl]-4,6,7,9-tetrahydro-3-hydroxy-9,9-dimethyl-4-oxo-] the IC50 was 2 to 100 nM. In the case of `CC1(C)OCCn2c1nc(C(=O)NCc1ccc(F)cc1F)c(O)c2=O` [Example 35, Pyrimido[2,1-c][1,4]oxazine-2-carboxamide, N-[(2,4-difluorophenyl)methyl]-4,6,7,9-tetrahydro-3-hydroxy-9,9-dimethyl-4-oxo-], the IC50 is reported as 2 to 100 nM. With `CC1(C)OCCn2c1nc(C(=O)NCc1ccc(F)cc1Cl)c(O)c2=O` [Example 36, Pyrimido[2,1-c][1,4]oxazine-2-carboxamide, N-[(2-chloro-4-fluorophenyl)methyl]-4,6,7,9-tetrahydro-3-hydroxy-9,9-dimethyl-4-oxo-] the IC50 was 2 to 100 nM. `Cc1ccc(CNC(=O)c2nc3n(c(=O)c2O)CCOC3(C)C)c(C)c1` [Example 37, Pyrimido[2,1-c][1,4]oxazine-2-carboxamide, N-[(2,4-dimethylphenyl)methyl]-4,6,7,9-tetrahydro-3-hydroxy-9,9-dimethyl-4-oxo-] gave an IC50 of 2 to 100 nM. Compound `Cc1cc(C)cc(CNC(=O)c2nc3n(c(=O)c2O)CCOC3(C)C)c1` [Example 38, Pyrimido[2,1-c][1,4]oxazine-2-carboxamide, N-[(3,5-dimethylphenyl)methyl]-4,6,7,9-tetrahydro-3-hydroxy-9,9-dimethyl-4-oxo-] has an IC50 of 2 to 100 nM.
